These results are taken from patent US20190169140A1, “IDO1 INHIBITOR AND PREPARATION METHOD AND APPLICATION THEREOF” (SHANDONG LUYE PHARMACEUTICAL CO., LTD., priority 2016, published 2019).

Molecules are shown by their SMILES. In brackets after ≈: the same amount, converted by molar mass. Like-named read-outs stand apart in the source and are kept apart here.

Data set [1] deals with T1, IDO1 enzyme in Hela cells (Homo sapiens, UniProt P14902).
T1 construct: endogenous in cells; host or cells: Hela cells, induced with recombinant human interferon-γ
T1 sequence (P14902 whole entry): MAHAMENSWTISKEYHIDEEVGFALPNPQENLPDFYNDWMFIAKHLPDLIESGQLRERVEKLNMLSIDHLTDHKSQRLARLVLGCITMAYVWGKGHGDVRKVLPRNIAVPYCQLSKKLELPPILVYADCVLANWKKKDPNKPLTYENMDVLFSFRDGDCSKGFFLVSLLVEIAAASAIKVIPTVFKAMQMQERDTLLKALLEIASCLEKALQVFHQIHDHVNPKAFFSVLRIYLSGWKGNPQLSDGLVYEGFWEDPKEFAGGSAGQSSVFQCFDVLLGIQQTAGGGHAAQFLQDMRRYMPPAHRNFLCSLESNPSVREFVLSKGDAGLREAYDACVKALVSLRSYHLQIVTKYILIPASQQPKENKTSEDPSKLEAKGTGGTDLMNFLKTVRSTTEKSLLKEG
In words: Test of hIDO1 for cytological activity (Hela cell kynurenine by LCMS, interferon-γ induced). In kind it is cell-based. The settings on record: interferon-γ 100 ng/ml, 20 hours. The protocol:
2. Test of hIDO1 for Cytological Activity
Changes in Hela cell kynurenine were detected by an LCMS method. With an IC50 value of a compound as an index, an inhibitory effect of the compound on IDO1 enzyme was evaluated.
The culture medium, trypsin, and DPBS were preheated in water bath at 37° C. The culture medium was removed by sucking from cell culture, followed by cleaning the cell culture with 10 mL of DPBS; the preheated trypsin was added to the culture flask, which was revolved to make the culture flask covered by trypsin uniformly, and placed into an incubator at 37° C. with 5% CO2 for digestion for 1-2 minutes; 10-15 mL of the culture medium was used to suspend cells each T150, followed by centrifugation at 800 rpm for 5 minutes. 10 mL of the culture medium was used to resuspend the cells. 1 mL of the cell resuspension was pipetted, and counted with Vi-cell; the Hela cells were diluted to 5×10^5/mL with the culture medium, 80 μL of the diluted Hela cells were added to the 96-well cell plate, and incubated in the an incubator at 37° C. with 5% CO2 for 5-6 hours.
The compound was diluted with DMSO to 1 mM, with 9 gradients, each 3-fold dilution, in duplicate. 5 μL of the already diluted compound DMSO solution was added to the compound plate containing 95 μL of the culture medium. After even mixing, 10 μL of the mixture was transferred to the cell plate.
10 μL of recombinant human interferon-γ was added to result in a final concentration of 100 ng/ml, to induce expression of IDO1. Incubation was carried out in the 5% CO2 incubator at 37° C. for 20 hours. 4 μL of 5% (w/v) trichloroacetic acid was added, followed by even mixing and incubation at 50° C. for 30 minutes. After centrifugation at 2400 rpm for 10 minutes, 40 μL of a supernatant was added to a 96-well V-bottom plate, followed by addition of a precipitant. Centrifugation was carried out at 4000 rpm for 10 minutes after even mixing. 100 μL of the supernatant was transferred to a new 96-well V-bottom plate. A content of kynurenine was detected through LCMS.
A reference well to which the interferon-γ was added but no compound was added was set to have an inhibition rate of 0%, and a reference well to which no Hela cell was added was set to have an inhibition rate of 100%. Data was analyzed with XLFit 5 to calculate an IC50 value of the compound.

A short description of data set [2]: Measurement of thermodynamic solubility. It is filed as physicochemical. The settings on record: aqueous buffer, thermodynamic from solid, room temperature. How it is done:
II. Measurement of Thermodynamic Solubility
1. Solutions for Thermodynamic Solubility
Buffer A (pH 2.0): 50 mM phosphate buffer, with a pH value of 2.0.
Buffer B (pH 7.4): 50 mM phosphate buffer, with a pH value of 7.4.
50% acetonitrile solution and 50% buffer (A, B) were mixed together to obtain a diluent. 10 mM (20 μL/compound) stock solution was added to acetonitrile (480 μL/compound), and mixed with the buffer (A, B) (500 μL/compound) to obtain 200 μM UV detection standard solution. The 200 μM UV detection standard solution was diluted with the diluent 10 times or 200 times the amount of the standard solution, so as to acquire 20 μM or 1 μM UV standard solution. 1, 20, and 200 μM UV standard solutions were taken as standard samples for thermodynamic solubility test.
No less than 2 mg of a sample powder was weighed and placed in a Whatman miniuniprep vial. If it was required to test the thermodynamic solubility of the sample in multiple buffers (A, B), an independent vial was demanded for each test. 450 μL of the buffer (A, B) was respectively added to each Whatman miniuniprep vial. After the buffer was added, a piston cover of the Whatman miniuniprep functioning to filter was put on and pressed above a liquid surface, such that a filter screen was in contact with the buffer (A, B) during the shaking. The solubility sample was shaken in a vortex manner for 1 minute, and phenomenon of the solution was recorded. The sample was shaken at 600 rpm at a room temperature (approximately 22˜25° C.) for 24 hours. The filtering cover of Whatman Miniunipreps was pressed to a bottom, to obtain a filtrate of the sample solubility solution. All sample vials should be recorded for insoluble substances before and after the filtration and leakage phenomenon thereof. The buffer (A, B) was 50-fold diluted to obtain a sample diluent.
3 UV standard solutions, from low concentration to high concentration, were injected into HPLC, and then the diluent and the supernatant of the compound to be tested were injected. The sample to be tested was in duplicate. Integration was carried out for UV chromatographic peaks. A standard curve was established by simulation and the thermodynamic solubility of the sample was calculated. HPLC conditions were as follows.

Data set [3] is described as follows: Test for permeability across Caco2. In kind it is in vitro ADME. The settings on record: human, Caco-2. How it is done: 2. Test for Permeability Across Caco2
A sample for test was dissolved in dimethyl sulfoxide (DMSO) or other suitable solvents, to be prepared into 10 mM stock solution. A suitable internal standard
Fenoterol, propranolol, and digoxin acted as low-permeability control, high-permeability control, and P-gp (P-glycoprotein) substrate, respectively, in the present research. The stock solutions of these compounds were prepared with DMSO, stocked at 2-8° C., and valid for use within 3 months.
In the present project, a Hank's balanced salt buffer containing 10 mM HEPES was used as a transport buffer.
Caco-2 cells were cultivated using MEM culture media (Minimum Essential Media), with a culture condition of 37±1° C., 5% CO2, and saturated relative humidity. Afterwards, the cells were inoculated into a BD Transwell-96-well plate, with an inoculation density of 1×10^5 cells/cm^2, then the cells were placed in a carbon dioxide incubator to be incubated for 21-28 days, and then used for a transport experiment.
The sample for test and digoxin with donation concentration of 2 μM were administered in two directions (direction A-B and direction B-A), each in duplicate. Fenoterol and propranolol each with test concentration of 2 μM were administered in a single direction (direction A-B), each in duplicate.
A solution to be used was placed in a 37±1° C. water bath kettle to be pre-incubated for 30 minutes. The donor solution and the receiver solution were respectively added to corresponding sides of well of cell plate (to each apical sides and each basolateral sides, 75 μL and 250 μL of samples were added respectively), and experiment of bidirectional transport was started. After addition of the samples, the cell plate was placed in a 37±1° C., 5% CO2 incubator with saturated relative humidity to be incubated for 120 minutes.
The samples were all centrifuged at 3220 g for 10 minutes after being shaken in a vortex manner. A suitable volume of a supernatant was transferred to a sample analyzing plate. If analysis was not carried out immediately after the plate was sealed, the plate was stored at 2-8° C. The analysis was carried out through a method of LC/MS/MS.
The sample for test, the fenoterol control, propranolol control, and digoxin were analyzed in a semiquantitative manner, and specific values of analytes to a peak area of the internal standard were taken as concentration of the controls.

The mark [4] stands for this setting: 50 mM phosphate buffer pH 2.0, 24 hours, read-out: thermodynamic solubility (pH: 2.0).
Where [5] appears, read: 50 mM phosphate buffer pH 7.4, 24 hours, read-out: thermodynamic solubility (pH: 7.4).

In the case of `NS(=O)(=O)NCCOc1nonc1/C(=N/O)Nc1ccc(F)c(Br)c1` [Compound 0015], the IC50 in data set [1] came to 14 nM. Also, the results for the solubility (thermodynamic) at 24 h in data set [2] (setting [4]) and in data set [2] (setting [5]) were 138 µM (≈ 60.6 µg/mL) and 298 µM (≈ 131 µg/mL), respectively.

`NS(=O)(=O)NCCSc1nonc1/C(=N/O)Nc1ccc(F)c(Br)c1` [Compound 0117] gave an IC50 in data set [1] of 5.85 nM. Besides, the solubility (thermodynamic) at 24 h in data set [2] (setting [4]) amounted to 2620 µM (≈ 1190 µg/mL). Moreover, the thermodynamic solubility at 24 h in data set [2] (setting [5]) was 2610 µM (≈ 1190 µg/mL). In addition, in data set [3], the Papp A→B at 120 min, 2 µM is 2.97 ×10⁻⁶ cm/s and the Papp B→A at 120 min, 2 µM worked out at 12.2 ×10⁻⁶ cm/s.

For the molecule `CC(=O)NCCSc1nonc1/C(=N/O)Nc1ccc(F)c(Br)c1` [Compound 0227], the IC50 in data set [1] was 3.1 nM.

In data set [1], `NC(=O)NCCSc1nonc1/C(=N/O)Nc1ccc(F)c(Br)c1` [Compound 0231] displayed an IC50 of 4.35 nM. The solubility (thermodynamic) at 24 h in data set [2] (setting [4]) is 155 µM (≈ 65 µg/mL). For the same molecule, in data set [2] (setting [5]), the solubility (thermodynamic) at 24 h is 125 µM (≈ 52.4 µg/mL). Further, in data set [3], the Papp A→B at 120 min, 2 µM was 2.58 ×10⁻⁶ cm/s and the Papp B→A at 120 min, 2 µM came to 20.1 ×10⁻⁶ cm/s.

With `NS(=O)(=O)NCCNc1nonc1C(=NO)Nc1ccc(F)c(Br)c1` [Compound 360, INCB024360, reference compound], the solubility (thermodynamic) at 24 h worked out at 65 µM (≈ 28.5 µg/mL) in data set [2] (setting [4]) and 160 µM (≈ 70.1 µg/mL) in data set [2] (setting [5]). In data set [3], this molecule came in with an apical-to-basolateral permeability (Papp A→B) at 120 min, 2 µM of 0.39 ×10⁻⁶ cm/s. Moreover, in data set [3], the Papp B→A at 120 min, 2 µM stood at 19.6 ×10⁻⁶ cm/s.
